Test results reported in ChEMBL document CHEMBL1201862, “PubChem BioAssay data set” (2004).
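Each compound was tested at five concentrations against cells in 96-well plates for 48 hours. Abbreviation: GI50, concentration required for 50% inhibition of growth.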 Calls of active or inactive are those of the source. Rule as the data show it: active = GI50 up to about 1.1 µM and inactive = higher. Non-standard residues stand in square brackets, D forms with d. Residues, ends and D or L forms follow the SMILES beside them. *: point of attachment. NMeF = CN[CH](Cc1ccccc1)C(=O)O; NMeV = CN[CH](C(=O)O)C(C)C; Boc = CC(C)(C)OC(=O)*

Experiments:
Assay in all cases: NCI anticancer screen, dose series, 48 h
786-0 = test system: 786-0
CAKI-1 = test system: CAKI-1
COLO 205 = test system: COLO 205
HCC 2998 = test system: HCC 2998
HL-60 = test system: HL-60
LOX IMVI = test system: LOX IMVI
NCI-H226 = test system: NCI-H226
NCI-H23 = test system: NCI-H23
OVCAR-5 = test system: OVCAR-5
SF-268 = test system: SF-268
SK-MEL-28 = test system: SK-MEL-28
SN12C = test system: SN12C
SR = test system: SR
SW-620 = test system: SW-620
TK-10 = test system: TK-10
U-251 = test system: U-251
CCRF-CEM = test system: CCRF-CEM
OVCAR-8 = test system: OVCAR-8
SF-295 = test system: SF-295

Measured: GI50

O=C(CC(=O)N1N=C(c2ccccc2)C(/N=N/c2ccc(Cl)cc2)C1=O)Nc1ccccc1Cl (stereo not drawn)
inactive: 786-0 12.2 µM | CAKI-1 19.5 µM | COLO 205 > 100 µM | HCC 2998 68.7 µM | HL-60 26.6 µM | LOX IMVI 26.2 µM | NCI-H226 19 µM | NCI-H23 29.4 µM | OVCAR-5 > 100 µM | SF-268 22.5 µM | SK-MEL-28 20.6 µM | SN12C 92 µM | SR 24.7 µM | SW-620 40.7 µM | TK-10 16.6 µM | U-251 24.5 µM

CN1C(=O)CNS1(=O)=O
inactive: 786-0 > 100 µM | CCRF-CEM > 100 µM | HCC 2998 > 100 µM | HL-60 > 100 µM | LOX IMVI > 100 µM | NCI-H226 > 100 µM | NCI-H23 > 100 µM | OVCAR-5 > 100 µM | OVCAR-8 > 100 µM | SF-268 > 100 µM | SF-295 > 100 µM | SK-MEL-28 > 100 µM | SN12C > 100 µM | SR > 100 µM | SW-620 > 100 µM | TK-10 > 100 µM | U-251 > 100 µM

COc1ccc2cc(Oc3ccc(Cl)cc3)c(=O)oc2c1
inactive: 786-0 > 100 µM | CAKI-1 > 100 µM | CCRF-CEM > 100 µM | HCC 2998 > 10 µM | HL-60 > 100 µM | LOX IMVI > 100 µM | NCI-H226 > 100 µM | NCI-H23 > 100 µM | OVCAR-5 > 100 µM | OVCAR-8 > 100 µM | SF-268 50.8 µM | SF-295 60.5 µM | SK-MEL-28 > 100 µM | SN12C > 100 µM | SR > 100 µM | SW-620 > 100 µM | TK-10 > 100 µM | U-251 > 10 µM

CC(C)C(NC(=O)OC(C)(C)C)C(=O)N(C)C(Cc1ccccc1)C(=O)N(C)C(C(=O)N(C)C(C(=O)O)C(C)C)C(C)C (stereo not drawn) (Boc-V[NMeF][NMeV][NMeV]-OH; configuration not given here)
inactive: 786-0 > 100 µM | CCRF-CEM > 100 µM | COLO 205 > 100 µM | HCC 2998 > 100 µM | HL-60 > 100 µM | LOX IMVI > 100 µM | NCI-H226 > 100 µM | NCI-H23 > 100 µM | OVCAR-8 > 100 µM | SF-268 > 100 µM | SF-295 > 100 µM | SK-MEL-28 > 100 µM | SN12C > 100 µM | SR > 100 µM | SW-620 > 100 µM | TK-10 > 100 µM | U-251 > 100 µM

CC(=O)OC1COC(N2C(=O)C(=O)c3cc(Br)ccc32)C(OC(C)=O)C1OC(C)=O (stereo not drawn)
inactive: 786-0 > 100 µM | CAKI-1 > 100 µM | CCRF-CEM 71.3 µM | COLO 205 > 100 µM | HCC 2998 > 100 µM | LOX IMVI > 100 µM | NCI-H226 > 100 µM | NCI-H23 > 100 µM | OVCAR-8 > 100 µM | SF-268 > 100 µM | SF-295 > 100 µM | SK-MEL-28 > 100 µM | SN12C > 100 µM | SR > 100 µM | SW-620 > 100 µM | TK-10 > 100 µM | U-251 > 100 µM

CCOC(=O)c1ccc(N2C(=O)Cc3ccccc3C2=O)cc1
inactive: 786-0 > 100 µM | COLO 205 > 10 µM | HCC 2998 > 100 µM | NCI-H226 > 100 µM | NCI-H23 > 100 µM | OVCAR-5 > 100 µM | OVCAR-8 > 100 µM | SF-268 > 100 µM | SF-295 > 100 µM | SK-MEL-28 > 100 µM | SN12C > 100 µM | SR > 100 µM | SW-620 > 100 µM | TK-10 > 100 µM | U-251 > 100 µM

O=[N+]([O-])c1nc(-c2ccccn2)[nH]c1[N+](=O)[O-]
inactive: CAKI-1 57.7 µM | CCRF-CEM 33.3 µM | COLO 205 45.5 µM | HCC 2998 96.4 µM | HL-60 30.1 µM | LOX IMVI 68.7 µM | NCI-H226 74.1 µM | NCI-H23 42.4 µM | OVCAR-5 > 100 µM | SF-268 43.6 µM | SF-295 > 100 µM | SK-MEL-28 54.7 µM | SN12C 71.6 µM | SR 32.2 µM | SW-620 66.2 µM | TK-10 > 100 µM | U-251 55.2 µM

O=C1C2=C(CCC2)Nc2cccc3ncn1c23
inactive: 786-0 > 100 µM | CCRF-CEM > 100 µM | COLO 205 43.4 µM | HCC 2998 > 100 µM | HL-60 15 µM | LOX IMVI 24.5 µM | NCI-H23 51.6 µM | OVCAR-5 15.9 µM | OVCAR-8 > 100 µM | SF-268 > 100 µM | SF-295 > 100 µM | SK-MEL-28 61.9 µM | SN12C 55.1 µM | SR > 100 µM | SW-620 70.1 µM | TK-10 14.7 µM | U-251 > 100 µM

[N-]=[N+]=Nc1cc(=O)oc2ccccc12
inactive: 786-0 > 100 µM | CAKI-1 > 100 µM | CCRF-CEM > 100 µM | COLO 205 > 100 µM | HL-60 > 100 µM | LOX IMVI > 100 µM | NCI-H226 > 100 µM | NCI-H23 > 100 µM | OVCAR-5 > 100 µM | OVCAR-8 > 100 µM | SF-268 > 100 µM | SF-295 > 100 µM | SK-MEL-28 > 100 µM | SN12C > 100 µM | SR 48.9 µM | SW-620 > 100 µM | TK-10 > 100 µM | U-251 > 100 µM

[N-]=[N+]=Nc1c(Br)c(=O)[nH]c(=O)n1COCCO
inactive: 786-0 > 100 µM | CAKI-1 > 100 µM | CCRF-CEM 63.4 µM | COLO 205 > 100 µM | HCC 2998 > 100 µM | HL-60 > 100 µM | LOX IMVI > 100 µM | NCI-H23 > 100 µM | OVCAR-5 > 100 µM | OVCAR-8 > 100 µM | SF-268 > 100 µM | SF-295 > 100 µM | SK-MEL-28 > 100 µM | SN12C > 100 µM | SR > 100 µM | SW-620 > 100 µM | TK-10 > 100 µM | U-251 > 100 µM

O=C(Nc1ccn(CCO)c(=O)n1)c1ccccc1
inactive: 786-0 > 100 µM | CAKI-1 > 100 µM | CCRF-CEM > 100 µM | COLO 205 > 100 µM | HL-60 > 100 µM | LOX IMVI > 100 µM | NCI-H226 > 100 µM | OVCAR-5 > 100 µM | OVCAR-8 > 100 µM | SF-268 > 100 µM | SF-295 > 100 µM | SK-MEL-28 > 100 µM | SN12C > 100 µM | SR > 100 µM | SW-620 > 100 µM | TK-10 > 100 µM | U-251 > 100 µM

COc1ccc2nc3cc(Cl)ccc3c(Sc3ccc(NC(C)=O)cc3)c2c1
inactive: 786-0 8.15 µM | CAKI-1 > 27 µM | CCRF-CEM 9.18 µM | COLO 205 14.8 µM | HCC 2998 2.74 µM | HL-60 19.4 µM | LOX IMVI 5.73 µM | NCI-H23 13.8 µM | OVCAR-5 > 29 µM | OVCAR-8 8.28 µM | SF-295 > 25.9 µM | SK-MEL-28 12.8 µM | SN12C 14.9 µM | SR 3.66 µM | SW-620 14.2 µM | TK-10 > 36.2 µM
